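Five compound concentrations were applied to cells in 96-well plates for 48 hours; endpoints were derived by simple linear interpolation of the resulting dose-response curve. At the TGI there is no net growth.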
Key:
Test in all cases: inhibition of tumour cell growth, NCI panel, 48 h
786-0 renal = tested on: 786-0 renal
A498 renal = tested on: A498 renal
A549 NSCLC = tested on: A549 NSCLC
ACHN renal = tested on: ACHN renal
BT-549 breast = tested on: BT-549 breast
CAKI-1 renal = tested on: CAKI-1 renal
CCRF-CEM leukemia = tested on: CCRF-CEM leukemia
COLO 205 colon = tested on: COLO 205 colon
DU-145 prostate = tested on: DU-145 prostate
EKVX NSCLC = tested on: EKVX NSCLC
HCT-116 colon = tested on: HCT-116 colon
HCT-15 colon = tested on: HCT-15 colon
HL-60(TB) leukemia = tested on: HL-60(TB) leukemia
HOP-62 NSCLC = tested on: HOP-62 NSCLC
HOP-92 NSCLC = tested on: HOP-92 NSCLC
HS 578T breast = tested on: HS 578T breast
HT29 colon = tested on: HT29 colon
IGROV1 ovarian = tested on: IGROV1 ovarian
K-562 leukemia = tested on: K-562 leukemia
KM12 colon = tested on: KM12 colon
LOX IMVI melanoma = tested on: LOX IMVI melanoma
M14 melanoma = tested on: M14 melanoma
MALME-3M melanoma = tested on: MALME-3M melanoma
MCF7 breast = tested on: MCF7 breast
MDA-MB-231 breast = tested on: MDA-MB-231 breast
MDA-MB-435 = tested on: MDA-MB-435
MDA-N = tested on: MDA-N
MOLT-4 leukemia = tested on: MOLT-4 leukemia
NCI-H23 lung = tested on: NCI-H23 lung
NCI-H460 lung = tested on: NCI-H460 lung
NCI-H522 lung = tested on: NCI-H522 lung
NCI/ADR-RES ovarian = tested on: NCI/ADR-RES ovarian
OVCAR-3 ovarian = tested on: OVCAR-3 ovarian
OVCAR-5 ovarian = tested on: OVCAR-5 ovarian
OVCAR-8 ovarian = tested on: OVCAR-8 ovarian
PC-3 prostate = tested on: PC-3 prostate
RPMI-8226 leukemia = tested on: RPMI-8226 leukemia
RXF 393 renal = tested on: RXF 393 renal
SF-268 CNS = tested on: SF-268 CNS
SF-295 CNS = tested on: SF-295 CNS
SF-539 CNS = tested on: SF-539 CNS
SK-MEL-2 melanoma = tested on: SK-MEL-2 melanoma
SK-MEL-28 melanoma = tested on: SK-MEL-28 melanoma
SK-MEL-5 melanoma = tested on: SK-MEL-5 melanoma
SK-OV-3 ovarian = tested on: SK-OV-3 ovarian
SN12C renal = tested on: SN12C renal
SNB-19 CNS = tested on: SNB-19 CNS
SNB-75 CNS = tested on: SNB-75 CNS
SR leukemia = tested on: SR leukemia
SW-620 colon = tested on: SW-620 colon
T-47D breast = tested on: T-47D breast
TK-10 renal = tested on: TK-10 renal
U251 CNS = tested on: U251 CNS
UACC-257 melanoma = tested on: UACC-257 melanoma
UACC-62 melanoma = tested on: UACC-62 melanoma
UO-31 renal = tested on: UO-31 renal

`COc1cc(O)cc2oc(-c3ccc(O)cc3)cc(=O)c12` gave a TGI (786-0 renal) greater than 100 µM, a TGI (A498 renal) of 78.3 µM and a TGI (A549 NSCLC) greater than 100 µM. The TGI (ACHN renal) was greater than 100 µM, the TGI (BT-549 breast) was greater than 100 µM and the TGI (CAKI-1 renal) was greater than 100 µM. For the same compound, the TGI (CCRF-CEM leukemia) was greater than 100 µM, the TGI (COLO 205 colon) was greater than 100 µM and the TGI (DU-145 prostate) was greater than 100 µM. The TGI (EKVX NSCLC) was greater than 100 µM, the TGI (HCT-116 colon) was greater than 100 µM and the TGI (HCT-15 colon) was greater than 100 µM. It also gave a TGI (HL-60(TB) leukemia) greater than 100 µM, a TGI (HOP-62 NSCLC) greater than 100 µM and a TGI (HOP-92 NSCLC) greater than 100 µM. The TGI (HS 578T breast) was greater than 100 µM, the TGI (HT29 colon) was greater than 100 µM and the TGI (IGROV1 ovarian) was greater than 100 µM. The TGI (K-562 leukemia) was greater than 100 µM, the TGI (KM12 colon) was greater than 100 µM and the TGI (LOX IMVI melanoma) was greater than 100 µM. For the same compound, the TGI (M14 melanoma) was greater than 100 µM, the TGI (MALME-3M melanoma) was greater than 100 µM and the TGI (MCF7 breast) was greater than 100 µM. The TGI (MDA-MB-231 breast) was greater than 100 µM, the TGI (MDA-MB-435) was greater than 100 µM and the TGI (MDA-N) was greater than 100 µM. The TGI (MOLT-4 leukemia) was greater than 100 µM, the TGI (NCI-H23 lung) was greater than 100 µM and the TGI (NCI-H460 lung) was greater than 100 µM. The TGI (NCI-H522 lung) was greater than 100 µM, the TGI (NCI/ADR-RES ovarian) was greater than 100 µM and the TGI (OVCAR-3 ovarian) was greater than 100 µM. The TGI (OVCAR-5 ovarian) was greater than 100 µM, the TGI (OVCAR-8 ovarian) was greater than 100 µM and the TGI (PC-3 prostate) was greater than 100 µM. For the same compound, the TGI (RPMI-8226 leukemia) was greater than 100 µM, the TGI (RXF 393 renal) was greater than 100 µM and the TGI (SF-268 CNS) was greater than 100 µM. The TGI (SF-295 CNS) was greater than 100 µM, the TGI (SF-539 CNS) was greater than 100 µM and the TGI (SK-MEL-2 melanoma) was greater than 100 µM. The TGI (SK-MEL-28 melanoma) was greater than 100 µM, the TGI (SK-MEL-5 melanoma) was greater than 100 µM and the TGI (SK-OV-3 ovarian) was greater than 100 µM. The TGI (SN12C renal) was greater than 100 µM, the TGI (SNB-19 CNS) was greater than 100 µM and the TGI (SNB-75 CNS) was 62.7 µM. For the same compound, the TGI (SR leukemia) was greater than 100 µM, the TGI (SW-620 colon) was greater than 100 µM and the TGI (T-47D breast) was greater than 100 µM. It also gave a TGI (TK-10 renal) greater than 100 µM, a TGI (U251 CNS) greater than 100 µM and a TGI (UACC-257 melanoma) greater than 100 µM. The TGI (UACC-62 melanoma) was greater than 100 µM and the TGI (UO-31 renal) was greater than 100 µM.

Source: PubChem BioAssay (NCI)
